This note sets out measurements from patent publication US9695219B2, “Polypeptide having antibacterial activity and angiogenesis-inducing activity and wound-healing drug containing said polypeptide” (priority 2009, dated 2017).

Where a SMILES comes first, the peptide text is derived from it. [ ]: non-standard residue; d: D form.

The test system of test [1] is Pseudomonas aeruginosa (clinical strain 6). The test is described as follows: MIC measurement, broth microdilution. It is filed as cell-based. As to conditions: 37° C. for 20 hours; tested twice, first/second value where not matched. (In broth dilution the organism is exposed to a series of concentrations in liquid medium.)
Test [2] deals with Pseudomonas aeruginosa (clinical strain 9). The test is described as follows: MIC measurement, broth microdilution. The following applies: 37° C. for 20 hours; tested twice, first/second value where not matched. It is filed as cell-based.
Test [3] deals with MSSA (clinical strain 1). The test is described as follows: microbe, parasite or virus in culture. It is filed as cell-based, Staphylococcus aureus. As to conditions: 37° C. for 20 hours; tested twice, first/second value where not matched. How it is done: Further, with respect to not only the above-described strains but also various other strains, the “minimum inhibitory concentration (MIC)” was measured as follows. MIC is the lowest concentration of an agent that may inhibit the growth of a bacterium. MIC is used as a parameter for the efficacy of an antibacterial agent, for the strength of bacterial sensitivity, or the like. The bacteria can grow (proliferate) when the concentration is not higher than MIC, and cannot grow when the concentration is higher than MIC. Its measurement is carried out according to a method defined as a standard method by Japanese Society of Chemotherapy or CLINICAL AND LABORATORY […] (CLSI), but, in this Example, its measurement was carried out by a broth microdilution method in accordance with “M100-S17/M7-A7” (Performance Standards for Antimicrobial Susceptibility Testing; Seventeenth Informational Supplement, Vol. 27 No. 1) published by CLSI on January, 2007. That is, sensitivity test of agents was carried out using a microtiter plate or test tubes.
The bacteria were cultured in liquid media for 4 to 6 hours, and thereafter absorbances at A600 were measured. Bacterial suspensions were diluted with Mueller-Hinton broth (MHB) according to McFarland #0.5. Each strain was added so as to attain about 10^5 CFU/ml (final concentration). Each peptide was prepared to an optional concentration, and the solutions were serially diluted from the concentration. The polypeptide at each concentration stage was added to a microplate or test tubes, and the bacterial suspension was added thereto. Chloramphenicol, amphotericin B, ciprofloxacin, meropenem (MEPM), ciprofloxacin (CPFX), tobramycin (TOB) and oxacillin (OX) were used as positive controls. The plate was incubated at 37° C. for 20 hours, and the lowest concentration where bacterial growth was inhibited was regarded as the minimum inhibitory concentration.

Test [4] relates to Normal human dermal fibroblasts (NHDFs). The test is described as follows: Collagen production test. As to conditions: 5-day culture. It is filed as cell-based. How it is done:
Normal human dermal fibroblasts (NHDFs) were plated in a 48-well plate. As a medium, Medium 106 containing 1% FBS was used. After culturing in an incubator at 37° C. under 5% CO2 for about 3 hours, the peptide or FGFb (Positive Control), which had been diluted with the medium to each concentration, was added, and the culturing was further continued. The medium was replaced with a medium containing the same additive on Day 3, and the culturing was continued for another 2 days.
The amount of produced collagen was measured by using Semi-Quantitative Collagen Assay Kit.
After the 5-day culture, the medium was removed by aspiration, and the cells were washed with cold PBS(−). Cold methanol/ethanol was added thereto and the plate was left to stand for 10 minutes at room temperature to fix the cells. The cells were washed twice with cold PBS(−). Then, a staining solution (Dye Solution) was added to each well, and the plate was left to stand at room temperature for 30 minutes. The staining solution was removed, and the cells were washed 4-5 times with deionized water. An extraction solution (Dye Extraction Solution) was added to each well to extract the dye, and the absorbances of the extract at 540 nm and 605 nm were measured.
The amounts of collagen and noncollagen proteins were calculated according to the following equation. […]

In test [5] the test system is paper disc model, Crl:CD (SD) rats. The test can be described thus: Ability to form granulation tissue in paper disc model. It is filed as in vivo, rat. As to conditions: 1, 10 or 100 μg/disc, subcutaneous, eight days. As to the method:
Then, the ability to form granulation tissue of these polypeptides in vivo was studied. Each of the peptides which were test substances and whose concentration was respectively 25, 250 and 2500 μg/mL, the bFGF formulation whose concentration was respectively 2.5, 25 and 250 μg/mL (positive controls) or saline (negative controls) was added to a paper disc (FILTER PAPER φ8 mm, […]) in an amount of 40 μl, such that, in the final state, the dosage of each peptide was 1, 10 or 100 μg/disc. The prepared paper discs were embedded subcutaneously into the back of Crl:CD (SD) rats (male, 9-week old, obtained from Charles River Laboratories Japan, Inc.). Eight days later, the paper discs were taken out, and the granulation tissues around the paper discs were collected to determine their wet weight.

For test [6], the system named is diabetes full-thickness defect flap model, hairless rats. The test is described as follows: Effect to heal diabetic skin ulcers in diabetes flap model. It is filed as in vivo, rat. As to conditions: 0.2 μg/μL. As to the method: For the purpose of producing a diabetes model, 7-week old male hairless rats (HWY/slc) were used, and, on the day before full-thickness defect flaps were created, the blood sugar level was measured and streptozotocin was administered once in tail vein (65 mg/kg). The full-thickness defect flap model was produced by measuring the blood sugar level of the rats on the day after the administration of streptozotocin and deciding only the individuals whose blood sugar level was not less than 300 mg/dL as the diabetes model. The full-thickness defect flaps were created by first creating on the back of each rat a pedicle flap of 2×2 cm (square) whose basal part was on its tail side, and then creating a full-thickness defect site (including dermal layer defect) of 1.4×1.4 cm (square: about 2 cm^2) in the central part of the created pedicle flap. Then, the flap sites were immediately sutured to obtain the full-thickness defect flap model. The model is a model of a diabetic intractable wound or skin ulcer, since the model also lacks dermal layer. […] Thereafter, on every measurement day, the test substance was administered once a day; the change of the area of the wound was calculated by measured values from a digital caliper and digital images; and the area where the wounds had still not healed was measured to calculate the ratio of it relative to the area where the wounds were created (Day 0).

The test system of test [7] is decubitus model, hairless rats. The test is described as follows: Healing effect on decubituses. It is filed as in vivo, rat. As to conditions: 0.2 μg/uL (4 μg/wound). As to the method: In order to confirm the healing effect on a decubitus, one of skin ulcers, a decubitus model was produced using 7-week old male hairless rats (HWY/slc), and the healing effect of the polypeptides of the present invention was examined. A pair of magnets (φ10×5 mm; available from AZBIO KENIS; rare earth magnets; Type: KD-2; Code: 3-118-119; and, Magnetic Flux Density: 350 mT) was contacted to the skin of the back of each rat for 8 hours to induce a decubitus. On the day after inducing the decubitus, the necrotic skin was surgically removed to obtain a decubitus model. After producing the decubitus model, the test substance was administered onto the wound site, and a covering was used to cover over that (Day 0). Only a covering was used in the Control. Thereafter, on every measurement day, the test substance was administered once a day, and the change of the area of the wound was measured by calculating measured values from a digital caliper and digital images. The concentration of the test substances were individually 0.2 μg/uL (4 μg/wound). The area where the burns had still not healed was measured to calculate the ratio of it relative to the area where the burns were created (Day 0).

For `CC[C@H](C)[C@H](NC(=O)[C@H](CC(C)C)NC(=O)[C@H](CCCCN)NC(=O)[C@@H](N)CC(C)C)C(=O)N[C@@H](Cc1ccccc1)C(=O)N[C@@H](CC(C)C)C(=O)N[C@@H](Cc1c[nH]cn1)C(=O)N[C@@H](CCCNC(=N)N)C(=O)N[C@@H](CC(C)C)C(=O)N[C@@H](CCCCN)C(=O)N[C@@H](CCCNC(=N)N)C(=O)N[C@@H](CCSC)C(=O)N[C@@H](CCCNC(=N)N)C(=O)N[C@@H](CCCCN)C(=O)N[C@@H](CCCNC(=N)N)C(=O)N[C@@H](CC(C)C)C(=O)N[C@H](CCCCN)C(=O)N[C@@H](CCCNC(=N)N)C(=O)N[C@@H](CCCCN)C(N)=O` [SR-08] (H-LKLIFLHRLKRMRKRL[dK]RK-NH2; N-terminus assumed), the “MIC, Pseudomonas aeruginosa (clinical strain 6)” value in test [1] is listed as 16/32. In addition, the “MIC, Pseudomonas aeruginosa (clinical strain 9)” value in test [2] is reported as 16/64. Moreover, the “MIC, MSSA (clinical strain 1)” value in test [3] was 16/32. In addition, in test [4], the “Collagen production of fibroblasts (FIG. 2)” value is given as “had an effect to induce collagen production of the fibroblasts”. Further, the “Granulation tissue formation (wet weight around paper disc, FIGS. 5 and 6)” value in test [5] was “promoted granulation tissue formation in vivo”. Moreover, in test [6], the “Number of days until complete healing (FIGS. 12 and 13)” value was “significantly smaller than the solvent control group”. For the same molecule, the “Healing effect on decubitus (unhealed area ratio, FIGS. 16 and 17)” value in test [7] (once a day) is on record as “showed a therapeutic effect also in decubituses”. The “Ratio of remaining wound area on Day 12, Mean Value” in test [7] (decubitus model, Day 12, Control Group 4.516729) is 0.7902.
